# pIC50: −log10 of the molar value.
# Target: T1, IRAK4 (Homo sapiens, UniProt Q9NWZ3)
# T1 construct: purchased CARNA Bioscience 09-145
# T1 sequence (Q9NWZ3 1-460): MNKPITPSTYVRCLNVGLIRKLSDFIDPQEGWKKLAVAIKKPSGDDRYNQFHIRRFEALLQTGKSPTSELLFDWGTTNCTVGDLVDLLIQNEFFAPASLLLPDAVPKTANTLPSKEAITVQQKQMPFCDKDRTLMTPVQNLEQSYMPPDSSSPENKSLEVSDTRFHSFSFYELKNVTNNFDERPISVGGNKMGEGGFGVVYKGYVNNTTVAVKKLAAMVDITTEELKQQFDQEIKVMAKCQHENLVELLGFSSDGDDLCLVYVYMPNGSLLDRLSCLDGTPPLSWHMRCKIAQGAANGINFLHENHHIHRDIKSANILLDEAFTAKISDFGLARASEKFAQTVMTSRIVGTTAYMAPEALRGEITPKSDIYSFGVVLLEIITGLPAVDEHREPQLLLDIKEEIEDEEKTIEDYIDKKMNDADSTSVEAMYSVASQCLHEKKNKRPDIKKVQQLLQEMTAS
# Assay: IRAK-4 activity inhibition assay (Caliper)
# Type: biochemical
# Conditions: 3.5 nM IRAK4, 1.5 μM Peptide 8, 37 μM ATP
# Experimental: A 1x kinase base buffer was prepared from 50 mM HEPES, pH 7.5 and 0.0015% Brij-35. A stop buffer was prepared from 100 mM HEPES, pH 7.5, 0.015% Brij-35, 0.2% Coating Reagent #3, and 50 mM EDTA.
# Test compound was diluted to 50× of the final desired highest inhibitor concentration in reaction by 100% DMSO. 100 ul of this compound dilution was transferred to a well in a 96-well plate. For example, if desired highest inhibitor concentration in IC50 determination is 100 uM, then prepare 5000 uM of compound DMSO solution in this step.
# Test compound was serially diluted by transferring 30 μl to 60 μl of 100% DMSO in the next well and so forth for a total of 10 concentrations. 100 μl of 100% DMSO was added to two empty wells for no compound control and no enzyme control in the same 96-well plate.
# A new 96-well plate was marked as intermediate plate. 5 μl of compound serial dilution was transferred from source plate to the corresponding wells of the intermediate plate. 45 μl of 1x kinase base buffer (KB buffer) was added to each well of the intermediate plate. The intermediate plate was placed for 10 min on a shaker.
# 5 μl of each well was transferred from the 96-well intermediate plate to a 384-well plate in duplicates. For example, A1 of the 96-well plate is transferred to A1 and A2 of the 384-well plate. A2 of the 96-well plate is transferred to A3 and A4 of the 384-well plate, and so on.
# IRAK4 and DTT in 1x kinase base buffer was added. The 2.5x enzyme mix contained 8.8 nM IRAK4 and 5 mM DTT.
# Peptide 8, ATP, MgCl2 and MnCl2 were added in the 1x kinase base buffer. The 2.5x peptide mix contained 3.75 μM peptide 8, 92.5 μM ATP, 12.5 mM MgCl2 and 2.5 mM MnCl2.
# Assay plate already contained 5 μl of compound in 10% DMSO. Added 10 μl of 2.5x enzyme solution to each well of the 384-well assay plate, except no enzyme control wells. The final concentration of IRAK4 in reaction was 3.5 nM. Added 10 μl of 1x kinase base buffer to no enzyme control wells in the assay plate. Incubated at room temperature for 10 min.
# Added 10 μl of 2.5x peptide solution to each well of the 384-well assay plate. The final concentration of Peptide 8 and ATP was 1.5 μM and 37 μM, respectively. Incubated at for 40 minutes. Added 25 μl of stop buffer to stop reaction. Collected data on Caliper.
# Copied conversion % data from Caliper program. Converted conversion % values to percent inhibition values. Percent inhibition=(max−conversion %)/(max−min)*100, where “max” means the conversion % of DMSO control and “min” means the conversion % of no enzyme control.
# The compound numbers correspond to the compound numbers in Table 1. Compounds having an activity designated as “A” provided an IC50≦5 μM; compounds having an activity designated as “B” provided an IC50 of 5-20 μM; compounds having an activity designated as “C” provided an IC50 of 20-50 μM; and compounds having an activity designated as “D” provided an IC50≧50 μM. “NA” stands for “not assayed.”
row,Structure (SMILES),pIC50
1,"CN(CC(=O)N1CCCC1)[C@H]1CC[C@H](Nc2ncnc3ccc(C#N)cc23)CC1 [Compound I-13, 4-(((1r,4r)-4-(methyl(2-oxo-2-(pyrrolidin-1-yl)ethyl)amino)-cyclohexyl)amino)quinazoline-6-carbonitrile]",≥ 5.30
2,"O=C(O)/C=C/c1ccc2ncnc(N[C@H]3CC[C@H](N4CCOCC4)CC3)c2c1 [Compound I-55, (E)-3-(4-(((1 r,4r)-4-morpholinocyclohexyl)amino)quinazolin-6-yl)acrylic acid]",≥ 5.30
3,"C=Cc1ccc2nccc(N[C@H]3CC[C@H](N4CCC5(CC4)CC5)CC3)c2c1 [Compound I-49, N-((1r,4r)-4-(6-azaspiro[2.5]octan-6-yl)cyclohexyl)-6-vinylquino-lin-4-amine]",≥ 5.30
4,"Cn1cc(-c2ccc3ncnc(N[C@H]4CC[C@H](N5CCOCC5)CC4)c3c2)cn1 [Compound I-60, 6-(1-methyl-1H-pyrazol-4-yl)-N-((1r,4r)-4-morpholinocyclo-hexyl)quinazolin-4-amine]",≥ 5.30
5,"CC(C)(O)/C=C/c1ccc2ncnc(N[C@H]3CC[C@H](N4CCOCC4)CC3)c2c1 [Compound I-57, (E)-2-methyl-4-(4-(((1r,4r)-4-morpholinocyclohexyl)amino)quina-zolin-6-yl)but-3-en-2-ol]",≥ 5.30
6,"Cc1cc(Nc2nc(N[C@H]3CC[C@H](N4CCOCC4)CC3)c3cc(C#N)ccc3n2)sn1 [Compound I-61, 2-((3-methylisothiazol-5-yl)amino)-4-(((1r,4r)-4-morpholino-cyclohexyl)amino)quinazoline-6-carbonitrile]",≥ 5.30
7,"CC1(C)CCN([C@H]2CC[C@H](Nc3ncnc4ccc(C#N)cc34)CC2)CC1 [Compound I-37, 4-(((1r,4r)-4-(4,4-dimethylpiperidin-1-yl)cyclohexyl)amino)-quinazoline-6-carbonitrile]",≥ 5.30
8,"CCc1ccc2ncnc(N[C@H]3CC[C@H](N4CCC(C)(C)CC4)CC3)c2c1 [Compound I-45, N-((1r,4r)-4-(4,4-dimethylpiperidin-1-yl)cyclohexyl)-6-ethylquina-zolin-4-amine]",≥ 5.30
9,"C=Cc1ccc2ncnc(N[C@H]3CC[C@H](N4CCC(C)(C)CC4)CC3)c2c1 [Compound I-43, N-((1r,4r)-4-(4,4-dimethylpiperidin-1-yl)cyclohexyl)-6-vinyl-quinazolin-4-amine]",≥ 5.30
10,"N#Cc1ccc2nccc(N[C@H]3CC[C@H](N4CCC5(CC4)CC5)CC3)c2c1 [Compound I-48, 4-(((1r,4r)-4-(6-azaspiro[2.5]octan-6-yl)cyclohexyl)-amino)quinoline-6-carbonitrile]",≥ 5.30

# The next lines start with the values.
row,pIC50,Structure (SMILES)
1,≥ 5.30,"FC(F)(F)c1ccc2ncnc(N[C@H]3CC[C@H](N4CCOCC4)CC3)c2c1 [Compound I-12, N-((1r,4r)-4-morpholinocyclohexyl)-6-(trifluoromethyl)-quinazolin-4-amine]"
2,≥ 5.30,"c1ccc2c(N[C@H]3CC[C@H](N4CCOCC4)CC3)ncnc2c1 [Compound I-1, N-((1r,4r)-4-morpholinocyclohexyl)quinazolin-4-amine]"
3,≥ 5.30,"OCC(O)c1ccc2ncnc(N[C@H]3CC[C@H](N4CCOCC4)CC3)c2c1 (some centres unmarked) [Compound I-21, 1-(4-(((1r,4r)-4-morpholinocyclohexyl)amino)quinazolin-6-yl)-ethane-1,2-diol]"
4,≥ 5.30,"CCc1ccc2ncnc(O[C@H]3CC[C@H](N4CCOCC4)CC3)c2c1 [Compound I-18, 4-((1r,4r)-4-((6-ethylquinazolin-4-yl)oxy)cyclohexyl) morpholine]"
5,≥ 5.30,"COCCc1ccc2ncnc(N[C@H]3CC[C@H](N4CCOCC4)CC3)c2c1 [Compound I-33, 6-(2-methoxyethyl)-N-((1r,4r)-4-morpholinocyclohexyl)-quinazolin-4-amine]"
6,≥ 5.30,"OCC(O)c1ccc2ncnc(O[C@H]3CC[C@H](N4CCOCC4)CC3)c2c1 (some centres unmarked) [Compound I-17, 1-(4-(((1r,4r)-4-morpholinocyclohexyl)oxy)quinazolin-6-yl)ethane-1,2-diol]"
7,≥ 5.30,"NC(=O)CCc1ccc2ncnc(N[C@H]3CC[C@H](N4CCOCC4)CC3)c2c1 [Compound I-50, 3-(4-(((1r,4r)-4-morpholinocyclohexyl)amino)quinazolin-6-yl)propanamide]"
8,≥ 5.30,"FC(F)(F)c1ccc2ncnc(O[C@H]3CC[C@H](N4CCOCC4)CC3)c2c1 [Compound I-6, 4-((1r,4r)-4-((6-(trifluoromethyl)quinazolin-4-yl)oxy)cyclohexyl)-morpholine]"
9,≥ 5.30,"N#Cc1ccc2ncnc(O[C@H]3CC[C@H](N4CCOCC4)CC3)c2c1 [Compound I-8, 4-(((1r,4r)-4-morpholinocyclohexyl)oxy)quinazoline-6-carbonitrile]"
10,≥ 5.30,"OCc1ccc2ncnc(O[C@H]3CC[C@H](N4CCOCC4)CC3)c2c1 [Compound I-19, (4-(((1r,4r)-4-morpholinocyclohexyl)oxy)quinazolin-6-yl)methanol]"
11,≥ 5.30,"Brc1ccc2ncnc(O[C@H]3CC[C@H](N4CCOCC4)CC3)c2c1 [Compound I-4, 4-((1r,4r)-4-((6-bromoquinazolin-4-yl)oxy)cyclohexyl)morpholine]"
12,≥ 5.30,"COCc1ccc2ncnc(N[C@H]3CC[C@H](N4CCOCC4)CC3)c2c1 [Compound I-32, 6-(methoxymethyl)-N-((1r,4r)-4-morpholinocyclohexyl)quina-zolin-4-amine]"
13,≥ 5.30,"OC/C=C\c1ccc2ncnc(N[C@H]3CC[C@H](N4CCOCC4)CC3)c2c1 [Compound I-42, (Z)-3-(4-(((1r,4r)-4-morpholinocyclohexyl)amino)quinazolin-6-yl)prop-2-en-1-ol]"
14,≥ 5.30,"NC(=O)c1ccc2ncnc(O[C@H]3CC[C@H](N4CCOCC4)CC3)c2c1 [Compound I-9, 4-(((1r,4r)-4-morpholinocyclohexyl)oxy)quinazoline-6-carboxamide]"
15,≥ 5.30,"N#CCCc1ccc2ncnc(N[C@H]3CC[C@H](N4CCOCC4)CC3)c2c1 [Compound I-51, 3-(4-(((1r,4r)-4-morpholinocyclohexyl)amino)quinazolin-6-yl)propanenitrile]"
16,≥ 5.30,"OCc1ccc2ncnc(N[C@H]3CC[C@H](N4CCOCC4)CC3)c2c1 [Compound I-23, (4-(((1r,4r)-4-morpholinocyclohexyl)amino)quinazolin-6-yl)methanol]"

# From US20150329498A1, “IRAK INHIBITORS AND USES THEREOF” (Nimbus Iris, Inc., priority 2014, published 2015)
